In one test the target is T1, BTK (Homo sapiens, UniProt Q06187).
T1 construct: High control=Cell group with added DMSO and without compound, indicating microplate readings without BTK degradation; endogenous in cells; host or cells: TMD-8 cells
Briefly: Cell Degradation: BTK degradation in TMD-8 cells, HTRF assay. It counts as cell-based. To be noted: 6 h treatment, IC50 (DC50) of BTK degradation. A digest of the protocol: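 BTK levels read by HTRF (665 vs 620 nm) in lysates of TMD-8 cells after 6 h compound exposure (eight doses, 6-fold steps, 0.2% DMSO). Percent degradation relative to controls; four-parameter curve fitting gave DC50, with Dmax the top degradation.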
Background: Time-resolved FRET reads energy transfer from a long-lived donor to a nearby acceptor.

The test system of the next test is HEK-293 cells. Description: HEK-293 Cytotoxicity Assay (CellTiter-Glo). In kind it is cell-based. The note with it: Homo sapiens, HEK293, 72 h incubation, CellTiter-Glo luminescence. A digest of the protocol:
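Four-parameter fit of % inhibition gives IC50, from CellTiter-Glo luminescent viability read-out. Cells exposed for 72 h to an 8-point, 4-fold series at 0.2% DMSO.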
Background: In ATP-based viability assays light output follows the ATP content of the culture.

By DC50 is commonly meant the concentration at which degradation of the target reaches its halfway point. As a reminder, the IC50 is the concentration that gives 50% inhibition.

T1 sequence (Q06187 whole entry): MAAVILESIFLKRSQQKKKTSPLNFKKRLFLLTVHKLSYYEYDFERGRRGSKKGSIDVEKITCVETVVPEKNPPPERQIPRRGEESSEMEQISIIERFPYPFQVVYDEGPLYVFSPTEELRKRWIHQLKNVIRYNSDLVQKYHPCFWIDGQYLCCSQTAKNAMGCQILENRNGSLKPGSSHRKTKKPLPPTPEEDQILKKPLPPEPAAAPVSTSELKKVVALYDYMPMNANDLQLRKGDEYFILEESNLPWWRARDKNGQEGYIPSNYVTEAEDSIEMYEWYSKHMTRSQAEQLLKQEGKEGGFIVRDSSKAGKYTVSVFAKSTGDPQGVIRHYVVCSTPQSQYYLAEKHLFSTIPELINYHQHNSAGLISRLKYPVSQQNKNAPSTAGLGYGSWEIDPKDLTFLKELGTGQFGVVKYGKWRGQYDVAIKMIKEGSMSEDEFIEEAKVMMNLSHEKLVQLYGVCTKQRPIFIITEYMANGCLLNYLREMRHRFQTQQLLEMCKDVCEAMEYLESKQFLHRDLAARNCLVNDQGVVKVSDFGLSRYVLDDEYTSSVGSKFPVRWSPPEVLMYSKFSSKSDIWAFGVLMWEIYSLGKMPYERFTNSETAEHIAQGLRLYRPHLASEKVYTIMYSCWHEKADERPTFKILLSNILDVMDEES

Turning to `Cc1c([C@@H](C)NC(=O)c2noc(C(C)(C)C)n2)ccc(-c2ncnc3[nH]c(-c4ccc(N5CCN(CC6CCN(c7ccc(N8CCC(=O)NC8=O)cc7)CC6)CC5)cn4)cc23)c1F` [Example 127, (R)-5-(tert-butyl)-N-(1-(4-(6-(5-(4-((1-(4-(2,4-dioxotetrahydropyrimidin-1(2H)-yl)phenyl)piperidin-4-yl)methyl)piperazin-1-yl)pyridin-2-yl)-7H-pyrrolo[2,3-d]pyrimidin-4-yl)-3-fluoro-2-methylphenyl)ethyl)-1,2,4-oxadiazole-3-carboxamide], on BTK, half-maximal degradation (DC50) was put at 0.42 nM. The IC50 with HEK-293 cells is over 10000 nM.
In the same order, the values of `Cc1cc(N2CCC(CN3CCN(c4ccc(-c5cc6c(-c7ccc([C@@H](C)NC(=O)c8noc(C(C)(C)C)n8)c(C)c7F)ncnc6[nH]5)nc4)CC3)CC2)ccc1N1CCC(=O)NC1=O` [Example 128, (R)-5-(tert-butyl)-N-(1-(4-(6-(5-(4-((1-(4-(2,4-dioxotetrahydropyrimidin-1(2H)-yl)-3-methylphenyl)piperidin-4-yl)methyl)piperazin-1-yl)pyridin-2-yl)-7H-pyrrolo[2,3-d]pyrimidin-4-yl)-3-fluoro-2-methylphenyl)ethyl)-1,2,4-oxadiazole-3-carboxamide] are 0.47 nM and over 10000 nM.
For `Cc1cc(-c2ncnc3[nH]c(-c4ccc(N5CCN(CC6CCN(c7ccc(N8CCC(=O)NC8=O)c(C)c7)CC6)CC5)cn4)cc23)ccc1[C@@H](C)NC(=O)c1noc(C(C)(C)C)n1` [Example 129, (R)-5-(tert-butyl)-N-(1-(4-(6-(5-(4-((1-(4-(2,4-dioxotetrahydropyrimidin-1(2H)-yl)-3-methylphenyl)piperidin-4-yl)methyl)piperazin-1-yl)pyridin-2-yl)-7H-pyrrolo[2,3-d]pyrimidin-4-yl)-2-methylphenyl)ethyl)-1,2,4-oxadiazole-3-carboxamide] the same measures were 0.33 nM and over 10000 nM.
On BTK, `Cc1cc(-c2ncnc3[nH]c(-c4ccc(N5CCN(CC6CCN(c7ccc(N8CCC(=O)NC8=O)c(C)c7)CC6)CC5)cn4)cc23)c(F)cc1[C@@H](C)NC(=O)c1noc(C(C)(C)C)n1` [Example 130, (R)-5-(tert-butyl)-N-(1-(4-(6-(5-(4-((1-(4-(2,4-dioxotetrahydropyrimidin-1(2H)-yl)-3-methylphenyl)piperidin-4-yl)methyl)piperazin-1-yl)pyridin-2-yl)-7H-pyrrolo[2,3-d]pyrimidin-4-yl)-5-fluoro-2-methylphenyl)ethyl)-1,2,4-oxadiazole-3-carboxamide] gave a DC50 of 0.79 nM. Also, in the test on HEK-293 cells, the IC50 is over 10000 nM.
On to `Cc1cc(-c2ncnc3[nH]c(-c4ccc(N5CCN(CC6CCN(c7ccc(N8CCC(=O)NC8=O)cc7)CC6)CC5)nc4)cc23)c(F)cc1[C@@H](C)NC(=O)c1noc(C(C)(C)C)n1` [Example 131, (R)-5-(tert-butyl)-N-(1-(4-(6-(6-(4-((1-(4-(2,4-dioxotetrahydropyrimidin-1(2H)-yl)phenyl)piperidin-4-yl)methyl)piperazin-1-yl)pyridin-3-yl)-7H-pyrrolo[2,3-d]pyrimidin-4-yl)-5-fluoro-2-methylphenyl)ethyl)-1,2,4-oxadiazole-3-carboxamide], for which the DC50 on BTK was 0.59 nM. For the same compound, in the test on HEK-293 cells, the IC50 is over 10000 nM.
On BTK, `Cc1cc(-c2ncnc3[nH]c(-c4ccc(N5CCN(CC6CCN(c7ccc(N8CCC(=O)NC8=O)c(C)c7)CC6)CC5)nc4)cc23)c(F)cc1[C@@H](C)NC(=O)c1noc(C(C)(C)C)n1` [Example 132, (R)-5-(tert-butyl)-N-(1-(4-(6-(6-(4-((1-(4-(2,4-dioxotetrahydropyrimidin-1(2H)-yl)-3-methylphenyl)piperidin-4-yl)methyl)piperazin-1-yl)pyridin-3-yl)-7H-pyrrolo[2,3-d]pyrimidin-4-yl)-5-fluoro-2-methylphenyl)ethyl)-1,2,4-oxadiazole-3-carboxamide] yielded a DC50 of 0.79 nM. The IC50 in the test on HEK-293 cells is over 10000 nM.

(Values after patent US20230167118A1, “DEGRADATION OF BRUTON'S TYROSINE KINASE (BTK) BY CONJUGATION OF BTK INIDBITORS WITH E3 LIGASE LIGAND AND METHODS OF USE” (BEIGENE, LTD., priority 2020, published 2023).)
